Where a name gives a salt, the structure may show the parent alone.
Assays:
Type in all cases: cell-based, human
[1] = tested on: OE33 cells; assay: FDA library drug sensitivity testing (CellTiter-Glo, 72 h); conditions: OE33; sDSSmod = DSSmod (patient cells) - DSSmod (normal cells)
Text: (§1) OE33, OE19 and SKGT2 human esophageal adenocarcinoma cell lines were obtained from the European Collection of Cell Culture ([…]). Flo1, EAC42 and EAC47 cells were established in the Capobianco Laboratory. EAC42 and EAC47 human esophageal adenocarcinoma cell lines are derived from patients undergoing surgery at the Miller School of Medicine, University of Miami. The Capobianco laboratory obtained written informed consent from all patients and approval from the Institutional Research Ethics Committee.
(§2) Drug sensitivity testing (DST) was performed as described previously. […] Individual drugs were dissolved in 100% DMSO and tested in duplicates starting at a maximal test concentration of 10μM then over a 20,000-fold concentration range to generate dose response curves. Wells with assay buffer containing DMSO served as negative controls. 1000 exponentially growing cells were seeded per well in 384-well micro-titer plates and incubated in the presence of compounds in a humidified environment at 37°C and 5% CO2. After 72 hours of treatment, cell viability was assessed by measuring ATP levels via bioluminescence (CellTiter-Glo, Promega) according to manufactures recommendations. Interpretation of curve parameters was performed according to the modified drug sensitivity scoring (DSSmod) function developed by Swords et al. […] Given in this way, the sDSSmod incorporated information on each drug’s potency, efficacy, effect range and therapeutic index, making it possible to prioritize compounds over multiple parameters using a single numerical metric. […] All calculations and scoring routines are implemented in MatLab and additional curve fitting and statistical analyses are performed in GraphPad prism.

[2] = tested on: normal esophageal epithelium cell line EACN42; assay: FDA library drug sensitivity testing (CellTiter-Glo, 72 h), normal control cells; set-up: key to DSS: modified drug sensitivity score (DSSmod) from dose-response curve fit; conditions: EACN42 normal esophageal cells, 72 h; for DSS: drug sensitivity score; for EC50: cell viability (ATP), max test concentration 10μM
Experimental: The normal esophageal epithelium cell line EACN42 was established in the Capobianco laboratory. The cell lines was derived from human normal epithelium and immortalized using HPV E6-E7.
as §2

[3] = tested on: EAC47 cells; assay: FDA library drug sensitivity testing (CellTiter-Glo, 72 h); conditions: EAC47; sDSSmod = DSSmod (patient cells) - DSSmod (normal cells)
Text: as §1, §2

[4] = tested on: EAC42 cells; assay: as above; conditions: EAC42; sDSSmod = DSSmod (patient cells) - DSSmod (normal cells)
Text: as §1, §2

[5] = tested on: SK-GT2 cells; assay: as above; conditions: SK-GT2; sDSSmod = DSSmod (patient cells) - DSSmod (normal cells)
Text: as §1, §2

[6] = tested on: OE19 cells; assay: as above; conditions: sDSSmod = DSSmod (patient cells) - DSSmod (normal cells)
Text: as §1, §2

Row | Compound | sDSSmod [1] | DSS [2] | sDSSmod [3] | sDSSmod [4] | EC50 ([2]; Homo sapiens) [µM] | sDSSmod [5] | sDSSmod [6] | EC50 [2] [µM]
1 | CNC(=O)CN(CCN(CCN(CC(=O)[O-])CC(=O)NC)CC(=O)[O-])CC(=O)[O-].[Gd+3] [Gadodiamide] | 29.62 | 0 | – | – | – | – | – | –
2 | O=c1[nH]c(=O)n([C@H]2C[C@H](O)[C@@H](CO)O2)cc1F [Floxuridine] | 13.67 | 4.9 | 35.54 | 40.61 | 0.83 | – | – | –
3 | Nc1nc(Cl)nc2c1ncn2[C@H]1C[C@H](O)[C@@H](CO)O1 [Cladribine] | – | 0.13 | 5.947 | 7.959 | – | – | – | –
4 | Nc1nc2nc[nH]c2c(=S)[nH]1 [Thioguanine] | 42.58 | 4.62 | 8.364 | 9.961 | 3.16 | 6.838 | – | –
5 | Nc1nc(O)c2[nH]nnc2n1 [Azaguanine-8] | 8.322 | 2.04 | – | 6.077 | – | – | – | –
6 | S=c1[nH]cnc2nc[nH]c12 [Mercaptopurine] | – | 0.05 | 10.9 | 10.48 | > 10 | – | – | –
7 | NS(=O)(=O)OC[C@@H]1C[C@@H](n2ccc3c(N[C@H]4CCc5ccccc54)ncnc32)C[C@@H]1O [MLN-4924] | – | 0.51 | 10.87 | 17.05 | > 10 | – | – | –
8 | C#Cc1cccc(Nc2ncnc3cc(OCCOC)c(OCCO)cc23)c1.Cl [Desmethyl Erlotinib] | 8.648 | 3.34 | – | – | – | 11.77 | – | –
9 | CC(=O)[C@]1(O)Cc2c(O)c3c(c(O)c2[C@@H](O[C@H]2C[C@H](N)[C@H](O)[C@H](C)O2)C1)C(=O)c1ccccc1C3=O [Idarubicin HCl] | 15.06 | 26.1 | – | 6.506 | 0.71 | -17.1644 | -22.4296 | –
10 | CO[C@H]1C[C@@H]2CC[C@@H](C)[C@@](O)(O2)C(=O)C(=O)N2CCCC[C@H]2C(=O)O[C@H]([C@H](C)C[C@@H]2CC[C@@H](OCCO)[C@H](OC)C2)CC(=O)[C@H](C)/C=C(\C)[C@@H](O)[C@@H](OC)C(=O)[C@H](C)C[C@H](C)/C=C/C=C/C=C/1C [Everolimus] | -5.493 | 7.57 | -5.697 | – | 9 | -5.054 | – | –
11 | O=c1[nH]cc(F)c(=O)[nH]1 [Adrucil] | 10.56 | 4.47 | – | – | 0.92 | – | – | –
12 | COc1cccc2c1C(=O)c1c(O)c3c(c(O)c1C2=O)C[C@@](O)(C(=O)CO)C[C@@H]3O[C@H]1C[C@H](N)[C@@H](O)[C@H](C)O1 [Epirubicin Hydrochloride] | 6.778 | 18.98 | – | – | 1.2 | -9.535 | -11.4055 | –
13 | CN(Cc1cnc2nc(N)nc(N)c2n1)c1ccc(C(=O)N[C@@H](CCC(=O)O)C(=O)O)cc1 [Abitrexate, Methotrexate] | 16.69 | 21.14 | 35.78 | 31.2825 | 0.04 | – | -21.1435 | –
14 | Nc1nc2[nH]cc(CCc3ccc(C(=O)N[C@@H](CCC(=O)O)C(=O)O)cc3)c2c(=O)[nH]1 [Pemetrexed] | 25.32 | 16.15 | 14.75 | 14.62 | 0.06 | – | -15.3102 | –
15 | CCCCCCNC(=O)n1cc(F)c(=O)[nH]c1=O [Carmofur] | 12.42 | 4.76 | – | – | 0.71 | – | – | –
16 | COc1cc([C@@H]2c3cc4c(cc3[C@@H](O[C@@H]3O[C@@H]5CO[C@@H](C)O[C@H]5[C@H](O)[C@H]3O)[C@H]3COC(=O)[C@H]23)OCO4)cc(OC)c1O [Etoposide] | 6.55 | 4.68 | – | 5.049 | > 10 | – | – | –
17 | C[C@@H](Oc1cc(-c2cnn(C3CCNCC3)c2)cnc1N)c1c(Cl)ccc(F)c1Cl [Crizotinib] | 22.74 | – | – | – | 8.03 | – | – | –
18 | O=S(=O)(O)CCS [Mesna] | – | 0 | – | – | – | 8.021 | – | –
19 | CC(C)c1nc(CN(C)C(=O)N[C@@H](CCN2CCOCC2)C(=O)N[C@H](CC[C@H](Cc2ccccc2)NC(=O)OCc2cncs2)Cc2ccccc2)cs1 [Cobicistat] | – | 0 | – | – | – | 7.685 | – | –
20 | C[C@H](NC(=O)Cc1cc(F)cc(F)c1)C(=O)N[C@H](C(=O)OC(C)(C)C)c1ccccc1 [DAPT] | – | 0 | – | – | – | 13.54 | – | –
21 | Cn1cnc([N+](=O)[O-])c1Sc1ncnc2nc[nH]c12 [Azathioprine] | – | 0.02 | 7.783 | 6.181 | – | 5.733 | – | –

Row | Compound | sDSSmod [1] | DSS [2] | sDSSmod [3] | sDSSmod [4] | EC50 ([2]; Homo sapiens) [µM] | sDSSmod [5] | sDSSmod [6] | EC50 [2] [µM]
22 | CN(C)CCOc1ccc(/C(=C(/CCCl)c2ccccc2)c2ccccc2)cc1 [Toremifene Citrate] | 23.6335 | 0 | – | – | – | – | – | –
23 | Nc1ccn([C@@H]2O[C@H](CO)[C@@H](O)C2(F)F)c(=O)n1 [Gemzar] | 11.79 | 16.2 | 10.03 | 17.37 | – | – | -11.949 | 0.77
24 | O=c1c(-c2ccc(O)cc2)coc2cc(O)cc(O)c12 [Genistein] | 5.079 | 0.04 | – | – | > 10 | 5.117 | – | –
25 | Nc1ccn([C@@H]2O[C@H](CO)[C@@H](O)[C@@H]2O)c(=O)n1 [Cytarabine] | 6.525 | 1.34 | – | – | > 10 | – | – | –
26 | O=c1oc2c(O)c(O)cc3c(=O)oc4c(O)c(O)cc1c4c23 [Ellagic acid] | 7.542 | 0 | – | – | – | – | – | –
27 | COc1cc2c(Nc3ccc(Br)cc3F)ncnc2cc1OCC1CCN(C)CC1 [Vandetanib] | 8.255 | 0.13 | – | – | 4.46 | 7.721 | 7.027 | –
28 | Bacitracin zinc | 17.07 | 0 | – | – | – | – | – | –
29 | Nc1ncn([C@@H]2O[C@H](CO)[C@@H](O)[C@H]2O)c(=O)n1 [Azacitidine] | 23.96 | 0 | – | – | – | – | – | –
30 | C=CC(=O)N1CCC[C@@H](n2nc(-c3ccc(Oc4ccccc4)cc3)c3c(N)ncnc32)C1 [Ibrutinib] | – | 0 | – | – | – | 39.31 | 31.18 | –
31 | C[C@@]12C[C@@]3(O)O[C@@H](O1)[C@]1(COC(=O)c4ccccc4)[C@H]3C[C@@]12O[C@@H]1O[C@H](CO)[C@@H](O)[C@H](O)[C@H]1O [Paeoniflorin] | – | 0 | – | – | – | – | – | –
32 | NC(=O)NO [Hydroxyurea] | – | 0 | – | – | – | – | – | –
33 | CNC(=O)c1cc(Oc2ccc(NC(=O)Nc3ccc(Cl)c(C(F)(F)F)c3)c(F)c2)ccn1 [Regorafenib] | – | 1.85 | – | – | > 10 | – | – | –
34 | COc1cc2nccc(Oc3ccc(NC(=O)C4(C(=O)Nc5ccc(F)cc5)CC4)cc3)c2cc1OC [Cabozantinib] | 19.55 | 0 | – | – | – | – | – | –
35 | CC[C@]1(O)C[C@@H]2CN(CCc3c([nH]c4ccccc34)[C@@](C(=O)OC)(c3cc4c(cc3OC)N(C)[C@H]3[C@@](O)(C(=O)OC)[C@H](OC(C)=O)[C@]5(CC)C=CCN6CC[C@]43[C@@H]65)C2)C1 [Vinblastine] | – | 1.63 | – | – | > 10 | – | – | –
36 | CNC(=O)c1ccc(N2C(=S)N(c3ccc(C#N)c(C(F)(F)F)c3)C(=O)C2(C)C)cc1F [Enzalutamide] | – | 0 | – | – | – | – | – | –
37 | CC1(C)O[C@@H]2C[C@H]3[C@@H]4CCC5=CC(=O)C=C[C@]5(C)[C@@]4(F)[C@@H](O)C[C@]3(C)[C@]2(C(=O)CO)O1 [Triamcinolone Acetonide] | – | 0 | – | – | – | – | – | –
38 | CN(C)c1nc(N(C)C)nc(N(C)C)n1 [Altretamine] | – | 0 | – | – | – | – | – | –
39 | COc1ccccc1OCC(O)CN1CCN(CC(=O)Nc2c(C)cccc2C)CC1 (stereo not drawn) [Ranolazine] | 25.89 | 0 | – | – | – | – | – | –
40 | CN[C@H]1C[C@@H](N)[C@H](O)[C@@H](O[C@@H]2O[C@H](CO)[C@H](O)[C@@H]3OC4(O[C@H]23)O[C@H]([C@@H](N)CO)[C@H](O)[C@H](O)[C@H]4O)[C@@H]1O (stereo partly drawn) [Hygromycin B] | – | 3.8 | – | – | – | – | – | 7.77
41 | COc1ccc2[n-]c([S@@+]([O-])Cc3ncc(C)c(OC)c3C)nc2c1.[Na+] [Esomeprazole sodium] | – | 0 | – | – | – | – | – | –
42 | O=C1[C@H](CC[C@H](O)c2ccc(F)cc2)[C@@H](c2ccc(O)cc2)N1c1ccc(F)cc1 [Ezetimibe] | – | 0 | – | – | – | – | – | –

Source: paper PMC6136712, “Ex vivo drug sensitivity testing as a means for drug repurposing in esophageal adenocarcinoma” (PLoS ONE, 2018)
